Measurements taken from PubChem BioAssay (NCI).
Several values for one entry are separate records, joined by “and”; a condition that tells them apart may be missing. Equal entries are not always repeated.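 Tested at 5 concentrations; 48 h exposure; 96-well plates; endpoints linearly interpolated, else capped at highest concentration. GI50 is the concentration that inhibits growth by half. TGI is the concentration that stops growth completely.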

Columns and labels:
Experiment in all cases: DTP human tumour cell line panel, 48 h
MDA-MB-231 breast = test system: MDA-MB-231 breast
HOP-62 NSCLC = test system: HOP-62 NSCLC
EKVX NSCLC = test system: EKVX NSCLC
MDA-MB-435 = test system: MDA-MB-435
CCRF-CEM leukemia = test system: CCRF-CEM leukemia
RXF 393 renal = test system: RXF 393 renal
MCF7 breast = test system: MCF7 breast
RPMI-8226 leukemia = test system: RPMI-8226 leukemia
M14 melanoma = test system: M14 melanoma
HOP-92 NSCLC = test system: HOP-92 NSCLC

| SMILES | GI50 (MDA-MB-231 breast) | TGI (MDA-MB-231 breast) | GI50 (HOP-62 NSCLC) | TGI (HOP-62 NSCLC) | GI50 (EKVX NSCLC) | TGI (EKVX NSCLC) | GI50 (MDA-MB-435) | TGI (MDA-MB-435) | GI50 (CCRF-CEM leukemia) | TGI (CCRF-CEM leukemia) | GI50 (RXF 393 renal) | TGI (RXF 393 renal) | GI50 (MCF7 breast) | TGI (MCF7 breast) [µM] | GI50 (RPMI-8226 leukemia) | TGI (RPMI-8226 leukemia) | GI50 (M14 melanoma) | TGI (M14 melanoma) | GI50 (HOP-92 NSCLC) | TGI (HOP-92 NSCLC) |
| --- | --- | --- | --- | --- | --- | --- | --- | --- | --- | --- | --- | --- | --- | --- | --- | --- | --- | --- | --- | --- |
| Cc1csc(-c2ccc3c(c2)COC3(CCCN(C)C)c2ccc(F)cc2)c1 (configuration not stated) | 1.79 µM | 3.34 µM | 1.67 µM | 3.42 µM | 1.77 µM | 3.48 µM | 1.69 µM | 3.08 µM | 2.21 µM | 5.35 µM | 1.63 µM | 3.04 µM | 1.7 µM | 3.38 | 2.2 µM | 4.76 µM | 1.81 µM | 3.59 µM | 1.6 µM | 3.17 µM |
| O=C(Nc1ccc(O)c(NS(=O)(=O)c2ccc(F)cc2)c1)c1ccc(-c2ccccc2)cc1 | 6.15 µM | 20.4 µM | 19.9 µM | 40.2 µM | 7.17 µM | 26.4 µM | 8.12 µM | 26 µM | 2.96 µM | 13 µM | 2.53 µM | 10.7 µM | 3.85 µM | 17.4 | 2.87 µM | 18.2 µM | 7.32 µM | 21.6 µM | 2.68 µM | 17.1 µM |
| O=[N+]([O-])c1ccc(NN=C2c3ccccc3Cc3ccccc32)c([N+](=O)[O-])c1 |  | > 100 µM |  | > 100 µM |  | > 100 µM |  | 5.8 µM |  | 18.2 µM |  | > 100 µM |  | > 100 |  | > 100 µM |  | > 100 µM |  | > 100 µM |
| CS(=O)(=O)N(CC(=O)O)Cc1ccccc1 |  | > 100 µM |  | > 100 µM |  | > 100 µM |  | > 100 µM |  | > 100 µM |  | > 100 µM |  | > 100 |  | > 100 µM |  | > 100 µM |  | > 100 µM |
| COc1cccc2cc(-c3nc(C4CCC(C(=O)O)CC4)n4ncnc(N)c34)[nH]c12 (configuration not stated) | 0.39 µM and 0.348 µM | 23.5 µM and > 10 µM | 0.305 µM and 0.338 µM | 3.64 µM and 4.83 µM | 0.478 µM and 1.03 µM | 5.13 µM and > 10 µM | 0.288 µM and 0.531 µM | 3.08 µM and 6.84 µM | 0.247 µM and 0.816 µM | 16.2 µM and > 10 µM | 0.186 µM and 0.299 µM | 0.954 µM and 3.27 µM | 0.155 µM and 0.22 µM | > 35.7 | 0.185 µM and 0.303 µM | 3.02 µM and > 5.2 µM | 0.219 µM and 0.36 µM | 3.76 µM and > 7.22 µM | 0.0158 µM and 0.0327 µM | 0.0988 µM and 0.358 µM |
| COc1ccc2c(c1)c(-c1nc(-c3cn(C)c4ncccc34)cs1)cn2CCCCN1CCOCC1 | 0.941 µM | 2.49 µM | 1.76 µM | 3.64 µM | 1.54 µM | 4.77 µM | 1.12 µM | 2.58 µM | 1.02 µM | 3.23 µM | 1.2 µM | 2.65 µM | 1.71 µM | 3.67 | 1.25 µM | 3.89 µM | 0.606 µM | 1.28 µM | 0.922 µM | 3.59 µM |
| COc1cc(C(=O)Nc2cc(O)c(C/C=C(\C)CCC=C(C)C)c(O)c2)cc2c1O[C@]1(C)CC[C@@H](O)C(C)(C)[C@H]1C2 | 1.01 µM and 0.461 µM | 5.53 µM and 5.34 µM | 0.0537 µM and 0.176 µM | 6.97 µM | 1.12 µM and 1.16 µM | 14.8 µM | 0.325 µM and 1.26 µM | 13 µM | 0.0438 µM and 0.0384 µM | > 22.7 µM | 0.00419 µM | 0.0809 µM and 0.17 µM | 0.0507 µM and 0.104 µM | 12.3 | 0.00911 µM and 0.0197 µM | 0.0806 µM and 0.0958 µM | 0.0984 µM and 0.0812 µM | 4.76 µM and 1.91 µM | 0.237 µM and 0.173 µM | 8.13 µM and 4.79 µM |
| Cc1cc(O)c(O)c(Oc2cc(C)cc(O)c2O)c1 |  | 52.7 µM |  | > 100 µM |  | 36.8 µM |  | > 100 µM |  | 7.46 µM |  | 88.2 µM |  | 29.3 |  | > 100 µM |  | 49.3 µM |  | 41.1 µM |
| CCNC(=O)c1ccc2c(c1)nc(-c1ccc(Cl)cc1)n2-c1cc(C(C)(C)C)[nH]n1 | 5.56 µM | 28.5 µM | 5.41 µM | 36.2 µM | 3.14 µM | > 100 µM | 1.09 µM | 5.35 µM | 2.94 µM | 40.7 µM | 1.81 µM | 5.55 µM | 2.68 µM | 10.5 | 2.84 µM | 14.1 µM | 2.97 µM | 10.8 µM | 1.36 µM | 7.77 µM |
| COC(=O)c1cc(NC(=O)CN(CCN(CC(=O)O)CC(=O)Nc2ccc(O)c(C(=O)OC)c2)CC(=O)O)ccc1O | > 100 µM | > 100 µM | 42.3 µM | > 100 µM | > 100 µM | > 100 µM | > 100 µM | > 100 µM | 30.9 µM | > 100 µM | > 100 µM | > 100 µM | 33.5 µM | > 100 | > 100 µM | > 100 µM | 41.9 µM | > 100 µM | > 100 µM | > 100 µM |
| Nc1ncnc2c1c(C(=O)NO)cn2C1OC(CO)C(O)C1O (configuration not stated) | 0.464 µM | 5.32 µM | 0.38 µM | > 22 µM | 0.776 µM | 15.7 µM | 0.363 µM | 1.9 µM | 0.235 µM | > 100 µM | 0.331 µM |  | 0.213 µM | 1.69 | 0.282 µM |  | 0.285 µM | 1.53 µM | 0.205 µM | 1.25 µM |
| COc1cc(/C=N/Nc2ncnc3c2cnn3Cc2ccccc2)ccc1O | 3.43 µM | > 25 µM | 5.24 µM | 11.8 µM | > 25 µM | > 25 µM | > 23.1 µM | > 25 µM | > 6.7 µM | > 25 µM | 4.7 µM | 19.2 µM | > 18 µM | > 25 | > 18.5 µM | > 25 µM | > 25 µM | > 25 µM | 0.83 µM | 8.86 µM |
| CNC(=O)c1c(NC(=O)c2ccc(C(C)C)cc2)sc2c1CCC(=O)C2 | 0.394 µM | 1.71 µM | 3.41 µM | 18.4 µM | 0.719 µM | 2.74 µM | 1.07 µM | 3.93 µM | 0.146 µM |  | 0.289 µM | 1.38 µM | 0.428 µM | 5.32 | 0.114 µM | 0.675 µM | 0.454 µM | 2.03 µM | 0.703 µM | 3.39 µM |
| COc1ccc(NC(=O)CC(=O)n2nc(-c3ccccc3)c(N=Nc3ccccc3C)c2-c2ccccc2)cc1 |  | > 100 µM |  | 33.8 µM |  | 45.2 µM |  | > 100 µM |  | > 100 µM |  | 33.4 µM |  | > 100 |  | > 100 µM |  | > 100 µM |  | 34.9 µM |
| C=CCCC(O)c1ccc(CCCCCCCCCCC)o1 (configuration not stated) | 12.6 µM | 26.2 µM | 17.3 µM | 32.2 µM | 18.2 µM | 32.9 µM | 16.7 µM | 35.3 µM | 19.3 µM | 40 µM | 18.5 µM | 36.5 µM | 20.3 µM | 50.9 | 14 µM | 38.6 µM | 17.2 µM | 32.4 µM | 18.2 µM | 35.9 µM |
| Cc1ccc(C(CC(=O)c2ccccc2)C(C(=O)c2ccccc2)C(c2ccc(C)cc2)C2C(=O)NC(=S)NC2=O)cc1 (configuration not stated) | 9.5 µM | > 50 µM | > 50 µM | > 50 µM | 19.5 µM | > 50 µM | 14.6 µM | > 50 µM | 15.8 µM | > 50 µM | 30.3 µM | > 50 µM | 10.6 µM | > 50 | 44.2 µM | > 50 µM | 27.2 µM | > 50 µM | 11 µM | > 50 µM |
